Data published in patent US9284301B2, “Soluble guanylate cyclase activators” (Merck Sharp & Dohme Corp., priority 2010, dated 2016).

Biological target: T1, sGC α1/β1 heterodimer (Homo sapiens, UniProt Q02108+Q02153)
T1 construct: expressed in transfected cells; host or cells: CHO-K1 (clone #7, CHO-K1/sGC)
T1 sequence (Q02108 1-690): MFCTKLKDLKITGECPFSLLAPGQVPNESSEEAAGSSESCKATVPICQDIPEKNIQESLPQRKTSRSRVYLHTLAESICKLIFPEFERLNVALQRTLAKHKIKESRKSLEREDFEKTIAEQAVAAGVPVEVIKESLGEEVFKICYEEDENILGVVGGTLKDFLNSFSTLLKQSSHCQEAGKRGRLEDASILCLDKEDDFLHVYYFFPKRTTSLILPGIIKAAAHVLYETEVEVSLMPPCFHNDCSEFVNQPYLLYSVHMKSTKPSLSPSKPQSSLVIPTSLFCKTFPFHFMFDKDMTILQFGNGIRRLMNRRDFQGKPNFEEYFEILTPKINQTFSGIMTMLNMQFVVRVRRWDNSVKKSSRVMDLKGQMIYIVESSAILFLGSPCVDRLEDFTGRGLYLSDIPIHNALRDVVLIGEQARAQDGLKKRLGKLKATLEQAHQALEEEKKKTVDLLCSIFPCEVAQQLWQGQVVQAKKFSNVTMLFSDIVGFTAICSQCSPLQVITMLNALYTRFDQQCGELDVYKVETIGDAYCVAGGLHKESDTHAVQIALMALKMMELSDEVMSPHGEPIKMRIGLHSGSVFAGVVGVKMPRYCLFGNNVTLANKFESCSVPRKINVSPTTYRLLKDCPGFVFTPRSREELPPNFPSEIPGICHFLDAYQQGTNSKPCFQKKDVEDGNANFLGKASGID
T1 sequence (Q02153 1-619): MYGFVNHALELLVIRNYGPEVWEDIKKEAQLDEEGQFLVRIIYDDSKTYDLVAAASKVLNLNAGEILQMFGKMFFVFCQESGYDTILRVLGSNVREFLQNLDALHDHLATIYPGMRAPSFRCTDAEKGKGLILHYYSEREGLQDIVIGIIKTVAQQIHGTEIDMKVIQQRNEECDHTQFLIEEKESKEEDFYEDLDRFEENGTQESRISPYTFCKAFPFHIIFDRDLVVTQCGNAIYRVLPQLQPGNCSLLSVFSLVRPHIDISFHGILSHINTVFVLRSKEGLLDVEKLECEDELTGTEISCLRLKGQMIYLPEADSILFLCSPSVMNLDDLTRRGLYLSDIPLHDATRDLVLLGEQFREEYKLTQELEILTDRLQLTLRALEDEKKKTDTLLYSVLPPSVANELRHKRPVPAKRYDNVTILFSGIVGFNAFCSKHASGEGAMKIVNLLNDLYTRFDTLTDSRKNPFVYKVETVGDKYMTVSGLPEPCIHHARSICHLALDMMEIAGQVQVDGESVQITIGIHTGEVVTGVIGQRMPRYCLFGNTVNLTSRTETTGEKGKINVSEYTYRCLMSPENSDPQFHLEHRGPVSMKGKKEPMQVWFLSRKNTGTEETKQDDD
Assay: Cell-based sGC Functional Assay (CASA Assay): cGMP generation in CHO-K1/sGC cells, HTRF readout
Settings: without ODQ incubation; for EC50: read-out: IP (inflection point)
Text: Cell-based sGC Functional Assay (CASA Assay) Rationale: sGC is a heme-containing enzyme that converts GTP to secondary messenger cGMP. Increases in cGMP levels affect several physiological processes including vasorelaxation through multiple downstream pathways. […] Heme-dependent activators (HDAs) preferentially activate sGC containing a ferrous Deme group. To determine the effect of sGC activators on enzyme activity, the CASA assay was developed to monitor the generation of cGMP in a cell line that stably expresses the heterodimeric sGC protein. Methods: A CHO-K1 cell line stably expressing the sGC α1/β1 heterodimer was generated using a standard transfection protocol. CHO-K1 cells were transfected with plasmids pIREShyghsGCα1 and pIRESneo-hsGCβ1 simultaneously using FUGENE reagent. Clones that stably express both subunits were selected with hygromycin and neomycin for ˜2 weeks. Clone #7 was chosen for the assay and was designated CHO-K1/sGC. CHO-K1/sGC cells were maintained in F-K12 medium containing 10% heat-inactivated Fetal Bovine Serum (FBS), 100 μg/mL penicillin/streptomycin, 0.5 mg/mL hygromycin and 0.25 mg/mL G418. On the day of the assay, cells were harvested in EBSS Assay Buffer (EAB) containing 5 mM MgCl2, 10 mM HEPES (4-(2-hydroxyethyl)piperazine-1-ethanesulfonic acid) and 0.05% BSA (bovine serum albumin) and cell density was adjusted to 2×10^6/mL with EAB. IBMX (3-isobutyl-1-methylxanthin, 0.5 mM) was added to inhibit degradation of cGMP. Compounds were diluted from DMSO stock solutions and added to the assay at a final DMSO concentration of 1%. Cells were incubated with compounds of the invention, in the presence and/or absence of 10 μM of 1H-(1,2,4)oxadiazolo(4,3-a) quinoxalin-1-one (ODQ), for 1 hr at 37° C. At the end of the incubation period, the reaction was terminated and the cells were lysed. The level of intracellular cGMP was determined using an HTRF-based assay kit (from CisBio, 62GM2PEC), which detects the displacement of a fluorescence labeled cGMP from its specific antibody. HTRF is a TR-FRET based technology that uses the principles of TRF and FRET. The amount of cGMP was plotted against compound concentration in PRISM software and the inflection point (IP) and maximum fold induction over DMSO control were derived from the plot.

| Maximum fold induction over DMSO control | EC50 | Compound |
| --- | --- | --- |
| 234 fold | 170 nM | Nc1nc(-c2nc(Cc3c(F)ccc(F)c3F)n3cc(F)ccc23)ncc1-c1ccnc2ccc(F)cc12 [Example 73, 5-(6-fluoroquinolin-4-yl)-2-[6-fluoro-3-(2,3,6-trifluoro-benzyl)imidazo[1,5-a]pyridin-1-yl]pyrimidin-4-amine] |
| 127 fold | 34 nM | Cn1cc(-c2c(N)nc(-n3nc(Cc4c(F)ccc(F)c4F)c4cc(Cl)ccc43)nc2N)cn1 [Example 83, 2-[5-chloro-3-(2,3,6-trifluorobenzyl)-1H-indazol-1-yl]-5-(1-methyl-1H-pyrazol-4-yl)pyrimidine-4,6-diamine] |
| 322 fold | 397 nM | Nc1nc(-c2nc(Cc3c(F)ccc(F)c3F)n3cc(F)ccc23)ncc1-c1cccnc1 [Example 56, 2-[6-fluoro-3-(2,3,6-trifluorobenzyl)imidazo[1,5-a]pyridin-1-yl]-5-pyridin-3-ylpyrimidin-4-amine] |
| 71 fold | 499 nM | Cc1c(-c2cnc(-c3nc(Cc4c(F)ccc(F)c4F)n4ncccc34)nc2N)c(C(F)(F)F)nn1C [Example 3, 5-[1,5-dimethyl-3-(trifluoromethyl)-1H-pyrazol-4-yl]-2-[7-(2,3,6-trifluorobenzyl)imidazo[1,5-b]pyridazin-5-yl]pyrimidin-4-amine] |
| 74 fold | 524 nM | Nc1nc(-n2nc(Cc3c(F)ccc(F)c3F)c3cc(Cl)ccc32)nc(N)c1NC(=O)C1CC1 [Example 178, N-{4,6-diamino-2-[5-chloro-3-(2,3,6-trifluorobenzyl)-1H-indazol-1-yl]pyrimidin-5-yl}cyclopropanecarboxamide] |
| 129 fold | 296 nM | Nc1nc(-c2nc(Cc3c(F)ccc(F)c3F)n3ncccc23)ncc1-c1cccc2ncccc12 [Example 7, 5-quinolin-5-yl-2-[7-(2,3,6-trifluorobenzyl)imidazo[1,5-b]pyridazin-5-yl]pyrimidin-4-amine] |
| 55 fold | 178 nM | Cc1cc(-c2cnc(-c3nc(Cc4c(F)ccc(F)c4F)n4ncccc34)nc2N)ccn1 [Example 4, 5-(2-methylpyridin-4-yl)-2-[7-(2,3,6-trifluorobenzyl)imidazo[1,5-b]pyridazin-5-yl]pyrimidin-4-amine] |
| 244 fold | 540 nM | Nc1nc(-n2nc(CCC3CCCC3)c3ccccc32)nc(N)c1-c1cccnc1 [Example 208, 2-[3-(2-cyclopentylethyl)-1H-indazol-1-yl]-5-pyridin-3-ylpyrimidine-4,6-diamine] |
